Assay results as given in PubChem BioAssay AID179 (DTP/NCI, 2004).
The source made the active and inactive calls.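 How the source made its calls: active means compounds giving half or more protection of infected cells from virus-caused growth loss, again on retest; inactive means the rest.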

System: CEM cells HIV-1 protection, formazan growth assay
Assay: NCI AIDS Antiviral Assay
Settings: for IC50: measured here: growth of uninfected CEM cells
Summary of the method: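 Soluble formazan readout of cell growth; CEM cells ± HIV-1; 5 drug concs. ≥50% protection → retest; ≥50% again = moderately active; reproducible 100% = confirmed active.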

Row | SMILES | EC50 | IC50 | outcome
1 | COc1c(OC(C)=O)c(OC(C)=O)cc2c1-c1ccc(OC)c(=O)cc1C(NC(C)=O)CC2 (centres undefined) | > 0.2 µM | 0.0115 µM | 
2 | O=C(NNC(=S)Nc1ccc(Br)cc1)c1cc(-c2ccccc2)nc2ccccc12 | > 200 µM | 9.77 µM | 
3 | CCOC(=O)c1c(NS(=O)(=O)c2ccccc2)sc2c1CCCC2 |  |  | inactive
4 | Cc1ccc(Cc2nc(=S)[nH][nH]2)cc1 | > 200 µM | 120 µM | 
5 | CC(=Nc1ccc([N+](=O)[O-])cc1)c1ccc(O)cc1 | > 200 µM | 10.7 µM | 
6 | COC1[C@@H](OC(C)=O)[C@@H](NC(=O)C(Cl)(Cl)Cl)C(I)[C@@H](N2C(=O)c3ccccc3C2=O)[C@H]1OC (some centres undefined) | > 200 µM |  | 
7 | Nc1nc(Cl)c(N=Nc2ccc(Cl)cc2)c(NCC2(CO)CCC2)n1 | > 200 µM | > 200 µM | 
8 | O=C1CCCC1CC(CN1CCOCC1)Sc1nnnn1-c1ccccc1 (centres undefined) | > 200 µM | > 200 µM | 
9 | CCOC(=O)/C(=C\c1ccc(F)cc1)C(C)=O | > 398 µM | 79.4 µM | 
10 | O=P1(O)C=CC2(CCCC2)O1 | > 200 µM | > 200 µM | 
11 | COc1cc(C2C(Cl)C(=O)N2n2cnc3ccccc3c2=O)ccc1O (centres undefined) | > 676 µM | 30.2 µM | 
12 | COC(=O)CNS(=O)(=O)c1ccc(-c2c3nc(c(-c4ccc(S(=O)(=O)NCC(=O)OC)cc4)c4ccc([nH]4)c(-c4ccc(S(=O)(=O)NCC(=O)OC)cc4)c4nc(c(-c5ccc(S(=O)(=O)NCC(=O)OC)cc5)c5ccc2[nH]5)C=C4)C=C3)cc1 | > 100 µM | > 100 µM | 
13 | O=c1c(O)c(-c2ccc(O)c(O)c2)oc2cc(O)cc(O)c12 |  |  | inactive
14 | CCOC(=O)c1ccc(N=C2C(=S)N(c3ccc(C(=O)OCC)cc3)C(=N)N2/N=C/c2ccccc2)cc1 | > 200 µM | 3.24 µM | 
15 | OCCNCNc1nc(NCNCCO)nc(N(CNCCO)CNCCO)n1 | > 200 µM | 26.9 µM | 
16 | CCOP(=O)(OCC)/C(C#N)=C/c1ccco1 | 69.2 µM | > 200 µM | 
17 | O=[S@](c1ccccc1)[C@@H]1CC2C3CC4C2C4C31 (some centres undefined) | > 537 µM | 324 µM | 
18 | N#CC1Cc2cc3c(cc21)OCO3 (centres undefined) | > 200 µM | > 200 µM | 
19 | CSc1nc(Br)nc2ncn(C3CC(Oc4ccc(C)cc4)C(COc4ccc(C)cc4)O3)c12 (centres undefined) | > 200 µM | 44.7 µM | 
20 | O=C(CCCn1ccnc1[N+](=O)[O-])NCCn1cnc([N+](=O)[O-])c1 | > 200 µM | > 200 µM | 
21 | COc1ccc(N(C)C(=O)N(C)c2ccc([N+](=O)[O-])cc2)cc1 | > 200 µM | 9.33 µM | 

Row | SMILES | EC50 | IC50 | outcome
22 | Cc1ccc(S(=O)(=O)n2ccn3c(=O)cc(C)nc23)cc1 | > 200 µM | > 200 µM | 
23 | C=C1C(OC)O[C@@H]2O[C@@]3(C)CC[C@H]4[C@H](C)CC[C@@H]1[C@@]24O3 (some centres undefined) | > 200 µM | > 200 µM | 
24 | CCOC(=O)C(=O)Cc1cnc2ccccc2n1 | > 53.7 µM | > 53.7 µM | 
25 | S=C(/N=c1/sc(Nc2ccccc2)nc2sc3c(c12)CCCC3)Nc1ccccc1 | > 126 µM | > 126 µM | 
26 | CCOC(=O)N/N=C(\CC)NO | > 200 µM | > 200 µM | 
27 | O=c1nc2n(c3ncccc13)CC=NN2 | > 200 µM | > 200 µM | 
28 | O=S(=O)(c1ccccc1)C1(CCC2OCCO2)C=CC2(CC1)OCCO2 (centres undefined) | > 200 µM | > 200 µM | 
29 | Cc1cc(S(=O)(=O)Nc2nc(N)nc(N3CCOCC3)n2)c(S)cc1Cl | 61.7 µM | > 200 µM | 
30 | CC1=CC(C)(C)NC(=S)N1c1ccccc1O |  |  | inactive
31 | CCCCC(C#N)C(=O)NC(N)=O (centres undefined) | > 39.8 µM | > 39.8 µM | 
32 | CC(=O)Nn1cnc(C(=N)C#N)c1N | > 200 µM | > 200 µM | 
33 | CN(C)NP(=O)(NN(C)C)NN(C)C | > 200 µM | > 200 µM | 
34 | C=C(C)C1CC[C@]2(C(=O)O)CCC3(C)[C@H](CCC4[C@@]5(C)CC[C@H](OC6OC(CO)C(O)C6OC6OC(C)C(O)C(O)C6O)[C@@](C)(CO)C5CC[C@]43C)C12 (some centres undefined) |  |  | inactive
35 | Cc1ccccc1-n1c(SCC(=O)NC(=O)Nc2cccc(Cl)c2)nc2c(Br)cc(Br)cc2c1=O | > 200 µM | > 200 µM | 
36 | O=[N+]([O-])c1ccc2c(c1)N([O-])C1(CCCCC1)[N+]2=O | > 200 µM | 3.98 µM | 
37 | CC(=O)Nc1ccc(S(=O)(=O)N/N=C/c2ccco2)cc1 | > 589 µM | 309 µM | 
38 | Nc1ccc(S(=O)(=O)Nc2nc3ccccc3nc2N2CCCCC2)cc1 | > 200 µM | 72.4 µM | 
39 | CC(NC(=O)C1CCCN1C(=O)OC(C)(C)C)C(=O)OCc1ccccc1 (centres undefined) | > 95.5 µM | 60.3 µM | 
40 | NCCCC[C@@H](NC(=O)[C@H](CS)NC(=O)[C@@H](N)Cc1cnc[nH]1)C(=O)N[C@H](Cc1ccccc1)C(=O)N[C@H](Cc1c[nH]c2ccccc12)C(=O)N[C@@H](Cc1c[nH]c2ccccc12)C(N)=O | > 200 µM | > 200 µM | 
41 | COC(=O)c1ccc2cc(O)c(O)cc2c1 | > 200 µM | 22.4 µM | 
42 | CC1=C(C(=O)NCCCN(CCO)CCO)CC(C(=O)NCCCN(CCO)CCO)=C(C)N1 | > 200 µM | 112 µM | 

Row | SMILES | EC50 | IC50 | outcome
43 | CCOc1cnc(C(O)(c2ccccc2)c2ccccc2)o1 | 19.1 µM | 148 µM | 
44 | OC[C@H](O)[C@@H](OCc1ccccc1)[C@H](NCc1ccccc1)c1cccs1 | > 200 µM | 97.7 µM | 
45 | O=C(OCc1ccccc1)N1CCN(C(=O)OCc2ccccc2)CCN(C(=O)OCc2ccccc2)CCN(C(=O)OCc2ccccc2)CCN(C(=O)OCc2ccccc2)CC1 | > 100 µM | > 100 µM | 
46 | COc1cc(O)cc2c1C(=O)C(C)O2 (centres undefined) | > 200 µM | > 200 µM | 
47 | O=[N+]([O-])c1cccc(-c2ncnc(-c3cccc([N+](=O)[O-])c3)n2)c1 | > 100 µM | > 100 µM | 
48 | O=C(NCCCCCCNC(=O)NCc1ccco1)NCc1ccco1 | > 14.5 µM | > 14.5 µM | 
49 | COCCOCCOCCOc1cccc2c1C(=O)c1cccc(OCCOCCOCCOC)c1C2=O |  |  | inactive
50 | O=C(Nc1ccccc1)c1cc(S(=O)(=O)n2cc[nH]c2=O)c(S)cc1Cl | > 200 µM | > 200 µM | 
51 | CCCCCCCCCCCCCCCCNCCCS(=O)(=O)O | > 200 µM | 3.89 µM | 
52 | C[n+]1c2ccccc2cc2c(CNC(CCCN=C(N)N)C(=O)O)cccc21 (centres undefined) |  |  | inactive
53 | CSc1nncc2[nH]cnc12 | > 200 µM | > 200 µM | 
54 | O=C(CCSSc1ccccn1)ON1C(=O)CCC1=O | > 50.1 µM | > 50.1 µM | 
55 | N#Cc1c(N)c(C(=O)Nc2ccccc2)n2c1CCCC2 | > 200 µM | > 200 µM | 
56 | CC1=C/C(=C2/N=C(N(C)C)SS2)C(C)=N1 |  |  | inactive
57 | CC(=O)OC1C(O)COC(O[C@H]2CC[C@]34C[C@]35CC[C@]3(C)C([C@@]6(C)CC[C@@H](C(C)(C)O)O6)[C@@H](O)C[C@@]3(C)C5C[C@H](OC3OCC(O)C(O)C3O)[C@H]4C2(C)C)C1OC1OCC(O)C(O)C1O (some centres undefined) | > 200 µM | > 200 µM | 
58 | Cc1cc(C(F)(F)F)nc2nc3ccccc3n12 | > 200 µM | > 200 µM | 
59 | CN(C)CC1CCCc2ccccc2C1=O (centres undefined) |  |  | inactive
60 | CCCCCCC(C)S(=O)(=O)O (centres undefined) | > 200 µM | > 200 µM | 
61 | O=C(O)CCC1CCc2cccc(O)c2C1=O (centres undefined) |  |  | inactive
62 | Cc1ccc(C(c2c(O)c3ccccc3n(-c3ccccc3)c2=O)c2c(O)c3ccccc3n(-c3ccccc3)c2=O)cc1 | > 12.6 µM | > 12.6 µM | 
